“And” between values parts separate entries of the source, which are not always exact repeats. Equal values may be shown once.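 Where inhibition never reached the appropriate level, the endpoint shown equals the highest concentration tested. Otherwise, values were interpolated linearly from a five-concentration, 48-hour dose response in 96-well plates. The concentration for 50% growth inhibition is given as GI50. TGI: total growth inhibition.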 Bounds are passed on as bounds.

Common to all, as to test: growth of human tumour cells (NCI), 48 h
The test system of experiment [1] is SF-295 CNS.
Experiment [2] concerns K-562 leukemia.
For experiment [3], the system named is U251 CNS.
The subject of experiment [4] is SNB-75 CNS.
Experiment [5] relates to OVCAR-4 ovarian.
The subject of experiment [6] is IGROV1 ovarian.
Experiment [7] relates to NCI-H23 lung.
Experiment [8] has as its system HCC-2998 colon.
Experiment [9] relates to RPMI-8226 leukemia.
Experiment [10] deals with M19-MEL melanoma.
Experiment [11] relates to HCT-116 colon.
The subject of experiment [12] is UACC-62 melanoma.
Experiment [13] deals with MOLT-4 leukemia.
Experiment [14] has as its system COLO 205 colon.
The subject of experiment [15] is UACC-257 melanoma.
Experiment [16] relates to NCI/ADR-RES ovarian.
Experiment [17] concerns HL-60(TB) leukemia.

For the compound `CCOC(=O)[C@H]1Nc2c(cccc2[N+](=O)[O-])C2c3ccccc3CC21` (stereo partly drawn), the TGI in experiment [1], in experiment [2], in experiment [3], in experiment [4], in [5] and in experiment [6] was above 100 µM each time. In addition, the TGI in experiment [7], in experiment [8], in [9], in experiment [10], in experiment [11] and in [12] was above 100 µM throughout. Further, the TGI in [13] was above 100 µM; in experiment [14] it was above 100 µM; in experiment [15], 98.4 µM.

With `Fc1ccc(C(OCCN2CC3CC2CN3)c2ccc(F)cc2)cc1` (stereo not drawn), the TGI in [1], in experiment [2], in experiment [3], in experiment [16], in experiment [4] and in [5] was above 100 µM in each case. Also, the TGI in [6] is above 100 µM; in [7] it was above 100 µM; in experiment [17], above 100 µM; in [8], 30.4 µM; in experiment [9], 71.1 µM; in experiment [12], 37.3 µM. Further, the values for the TGI in [13], in experiment [14] and in [15] were above 100 µM, 33.5 µM and 36.6 µM, respectively.

In the case of `Clc1ccc(-c2nnc(-c3nsc4ccccc34)o2)cc1`, the TGI in [3] was 33.5 µM; in experiment [4], 24.6 µM; in experiment [5], 34.5 µM; in experiment [6], above 100 µM; in experiment [7], 74.1 µM; in experiment [8] it was 93.7 µM. Besides, the TGI in [9] is above 100 µM; in experiment [10] it was above 100 µM; in [11], 42.9 µM; in experiment [12], above 100 µM; in experiment [14], above 100 µM; in [15] it was above 100 µM.

In the case of `c1csc(C(NC2=NCCO2)C2CC2)c1` (stereo not drawn), the TGI in experiment [1], in experiment [3], in experiment [4], in experiment [5], in experiment [6] and in experiment [7] was above 100 µM each time. Further, the TGI in experiment [8], in experiment [9], in experiment [11], in [12], in experiment [13] and in [14] was above 100 µM throughout.

In the case of `CO/C(=N\N=C(/c1ccccc1)C(F)(F)F)c1ccncc1`, the TGI in experiment [1] is above 100 µM; in [2], above 100 µM; in experiment [3], above 100 µM; in experiment [16], 71.6 µM; in [4], above 100 µM; in experiment [5], above 100 µM. The TGI in experiment [6], in [7], in [17], in [9], in [11] and in experiment [12] was above 100 µM each time. Also, the TGI in experiment [13] and in experiment [14] was above 100 µM each time.

In the case of `N/C(=N\N=C/c1cc([N+](=O)[O-])cc([N+](=O)[O-])c1O)NO`, the TGI was above 100 µM in experiment [1]; above 91.2 µM in [2]; above 100 µM in experiment [3]; above 100 µM in experiment [16]; above 80.9 µM in [4]; above 100 µM in experiment [5]. In addition, the TGI in experiment [6] was above 100 µM; in experiment [7], above 100 µM; in experiment [17], above 55 µM; in [8] it was above 100 µM; in [9], above 100 µM; in [10], above 100 µM. The TGI in [11] was above 100 µM; in experiment [12], above 31.1 µM; in experiment [13], above 100 µM; in experiment [14], above 31.6 µM; in experiment [15], above 100 µM.

For `CCN1C(=O)N2C(OC)c3ccccc3C(Br)C2(OC)C1=O` (stereo not drawn), the TGI in experiment [1], in experiment [2], in experiment [3], in experiment [4], in experiment [5] and in experiment [6] was above 100 µM throughout. Moreover, the TGI in experiment [7], in [17], in [8], in experiment [9], in experiment [10] and in experiment [12] was above 100 µM each time. Besides, the TGI in experiment [13] and in experiment [14] was above 100 µM throughout.

With `Cc1cc(C)c(S(=O)(=O)N(CCCN)OCCCN)c(C)c1`, the TGI in experiment [1], in experiment [2], in experiment [3], in [16], in experiment [4] and in [5] was above 100 µM each time. In addition, the TGI in experiment [6], in [7], in experiment [8], in [9], in experiment [11] and in experiment [12] was above 100 µM in each case. Also, the TGI in [13], in experiment [14] and in [15] was above 100 µM each time.

Take `Clc1cccc(C2SCc3nc4ccccc4n32)c1` (stereo not drawn): the TGI was above 100 µM in experiment [1]; above 100 µM in [2]; 33 µM in experiment [3]; 21.3 µM in experiment [4]; above 100 µM in experiment [5]; 70 µM in experiment [6]. Further, the TGI was 51.4 µM in experiment [7]; 31.6 µM in experiment [17]; above 100 µM in experiment [9]; 58.4 µM in experiment [10]; 36.5 µM in experiment [12]; above 100 µM in [13]. For the same compound, the TGI in [14] was 15.1 µM.

Consider `O=c1[nH]c(=S)[nH]c2c(C3OC(CO)C(O)C3O)nsc12` (stereo not drawn), for which the TGI in experiment [1], in [2], in experiment [3], in [16], in experiment [4] and in [5] was above 100 µM each time. The TGI in experiment [6], in [17], in [8], in experiment [11], in experiment [12] and in [13] was above 100 µM each time. The TGI in [14] and in [15] was above 100 µM each time.

As to `CC1=NN(C(=O)c2ccc(C)cc2)C(=O)C1N=Nc1ccccc1C(=O)O` (stereo not drawn), the TGI in [1] is above 100 µM; in experiment [2], above 100 µM; in experiment [3], above 100 µM; in experiment [16] it was above 100 µM; in [4], 98.9 µM; in [5], above 100 µM. In addition, the TGI in experiment [6], in experiment [7], in [17], in experiment [8], in [9] and in experiment [10] was above 100 µM throughout. The TGI in [11], in experiment [12], in [13], in experiment [14] and in [15] was above 100 µM throughout.

Consider `CC(=O)Nc1cc(/C=C\C(=O)N2CC(CCl)c3c2cc(N)c2ccccc32)n(C)n1` (stereo not drawn), for which the values for the GI50 in experiment [1], in [16] and in experiment [5] were 0.0426 µM, 0.103 µM and 0.0216 µM, respectively. For the same compound, the TGI is 0.0203 µM in experiment [2]; 1.23 µM and 3.23 µM in experiment [3]; 0.0141 µM and 0.0459 µM in experiment [4]; above 100 µM in experiment [6]; 0.0273 µM in experiment [7]; 0.0126 µM in experiment [17]. In addition, the TGI in experiment [8] was 0.0733 µM and 0.0826 µM; in experiment [9] it was 0.0577 µM and 0.0242 µM; in experiment [12], 0.0284 µM; in [13], 0.0357 µM; in experiment [14] it was 0.0901 µM; in experiment [15] it was 0.0394 µM.

These data come from PubChem BioAssay (NCI).
